The text below walks through data of patent publication US11584734B2, “Tricyclic compounds as histone methyltransferase inhibitors” (GLOBAL BLOOD THERAPEUTICS, INC., priority 2017, dated 2023).

Where a name gives a salt, the structure may show the parent alone.

This test addresses T1, G9a (Homo sapiens, UniProt Q96KQ7).
T1 sequence (Q96KQ7 1-1210): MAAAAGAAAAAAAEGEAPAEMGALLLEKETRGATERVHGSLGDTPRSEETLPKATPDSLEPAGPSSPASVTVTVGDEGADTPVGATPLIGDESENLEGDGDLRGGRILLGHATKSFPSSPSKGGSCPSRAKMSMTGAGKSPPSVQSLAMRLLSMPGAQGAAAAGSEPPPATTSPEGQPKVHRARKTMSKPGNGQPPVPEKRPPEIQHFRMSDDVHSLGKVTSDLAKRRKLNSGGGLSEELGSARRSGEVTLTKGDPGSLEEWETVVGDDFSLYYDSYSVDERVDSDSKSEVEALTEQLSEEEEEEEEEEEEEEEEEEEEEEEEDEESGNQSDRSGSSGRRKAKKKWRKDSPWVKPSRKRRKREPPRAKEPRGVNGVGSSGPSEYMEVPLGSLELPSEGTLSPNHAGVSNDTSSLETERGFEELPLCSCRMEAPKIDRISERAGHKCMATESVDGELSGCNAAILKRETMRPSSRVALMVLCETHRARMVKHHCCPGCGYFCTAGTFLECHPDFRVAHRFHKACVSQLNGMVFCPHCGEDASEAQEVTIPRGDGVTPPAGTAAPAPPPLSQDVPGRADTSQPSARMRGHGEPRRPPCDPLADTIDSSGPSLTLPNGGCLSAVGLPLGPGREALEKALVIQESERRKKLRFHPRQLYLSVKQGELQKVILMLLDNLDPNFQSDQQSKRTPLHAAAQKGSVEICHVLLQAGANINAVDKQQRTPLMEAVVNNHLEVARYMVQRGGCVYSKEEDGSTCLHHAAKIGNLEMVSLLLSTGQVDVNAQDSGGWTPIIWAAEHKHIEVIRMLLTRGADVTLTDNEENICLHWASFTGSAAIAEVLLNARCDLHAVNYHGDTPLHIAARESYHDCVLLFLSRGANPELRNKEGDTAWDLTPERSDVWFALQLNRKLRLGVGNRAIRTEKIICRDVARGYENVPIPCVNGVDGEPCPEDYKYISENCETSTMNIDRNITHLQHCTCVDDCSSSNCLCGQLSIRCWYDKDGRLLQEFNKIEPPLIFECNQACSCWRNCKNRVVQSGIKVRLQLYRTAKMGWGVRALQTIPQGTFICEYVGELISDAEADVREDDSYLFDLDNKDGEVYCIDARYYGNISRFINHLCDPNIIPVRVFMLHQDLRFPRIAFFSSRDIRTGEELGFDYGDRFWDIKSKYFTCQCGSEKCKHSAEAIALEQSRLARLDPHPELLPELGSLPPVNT
Put plainly: G9a AlphaLISA enzymatic activity assay. To be noted: negative log of IC50 in molar, 0.15 nM G9a, 15 uM S-adenosyl-methionine, 100 nM biotinylated histone 3 peptide (1-21). It is filed as biochemical. An excerpt:
The G9a AlphaLISA assay was used to detect the methyl modifications of a biotinylated histone H3 peptide by the compounds. These modifications are done by the histone methyl transferase activity of the G9a enzyme. The assay consists of reading a chemiluminescent signal at 615 nm; this signal is generated by a laser excitation at 680 nm that transfers a reactive singlet oxygen between the donor beads and acceptor beads. Donor beads are streptavidin conjugated and bind to the biotin on the peptide. Acceptor beads are conjugated with an antibody that recognizes the specific G9a methyl mark on the peptide. If there is a methyl mark on the peptide, the acceptor beads will bind to the peptide. Upon binding, the acceptor beads will be in close proximity (<200 nm) of the donor beads and when the donor beads are excited, the transfer of the oxygen can occur and a strong signal will be generated. If there is no methyl mark, the interaction between beads will not occur and signal will be at background levels.
For the assay, the following buffer was used to set up reactions: 50 mM Tris-HCl pH9, 50 mM NaCl, 0.01% Tween-20 and 1 mM DTT (added fresh prior to starting the reactions). […] The reaction is incubated at rt for 1 hour and subsequently quenched by the addition of the acceptor beads (anti-H3k9me2 AlphaLISA acceptor beads, PerkinElmer #AL117) at a final concentration of 20 ug/mL. The acceptor beads are incubated for 1 hour. After 1 hour, the donor beads are added at a final concentration of 20 ug/mL (Alpha Streptavidin donor beads, PerkinElmer #6760002). Donor beads are incubated for 0.5 hours. Both donor and acceptor beads are resuspended in AlphaLISA 5X Epigenetics Buffer 1 Kit (PerkinElmer #AL008) prior to addition to the reaction. All manipulations and incubations with the donor and acceptor beads are done in subdued light. Signal is detected in an EnVision plate reader in Alpha mode. See ACS Med Chem Lett. 2014; 5(2):205-9.
Percent inhibition was calculated for each compound dilution and the concentration that produced 50% inhibition was calculated. This value is presented as the pIC50, which is the negative log of the IC50 value in molar.
Compound `Oc1cc2c(NCC3CC3)c3c(nc2cc1OCCCN1CCCC1)CCC3` [Example 2, dihydrochloride] had an IC50 of 158 nM. The result for `COC[C@H](C)Nc1c2c(nc3cc(OCCCN4CCCC4)c(OC)cc13)CCC2` [Example 4] reads 6.17 nM. The value for `CCNc1c2c(nc3cc(OCCCN4CCCC4)c(OC)cc13)CC(C)(C)C2` [Example 6, N-ethyl-7-methoxy-2,2-dimethyl-6-[3-(pyrrolidin-1-yl)propoxy]-1H,2H,3H-cyclopenta[b]quinolin-9-amine] was 38 nM. As to `COc1cc2c(NC(C)C)c3c(nc2cc1OCCCN1CCCC1)CC(C)(C)C3` [Example 7, 7-methoxy-2,2-dimethyl-N-(propan-2-yl)-6-[3-(pyrrolidin-1-yl)propoxy]-1H,2H,3H-cyclopenta[b]quinolin-9-amine], the IC50 is 30.9 nM. The result for `COCCNc1c2c(nc3cc(OCCCN4CCCC4)c(OC)cc13)CC(C)(C)C2` [Example 8, 7-methoxy-N-(2-methoxyethyl)-2,2-dimethyl-6-[3-(pyrrolidin-1-yl)propoxy]-1H,2H,3H-cyclopenta[b]quinolin-9-amine] reads 51.3 nM; that for `COc1cc2c(NCc3ccn[nH]3)c3c(nc2cc1OCCCN1CCCC1)CCC3` [Example 9, 7-methoxy-N-[(1H-pyrazol-5-yl)methyl]-6-[3-(pyrrolidin-1-yl)propoxy]-1H,2H,3H-cyclopenta[b]quinolin-9-amine], 12 nM. For the compound `CCOCCNc1c2c(nc3cc(OCCCN4CCCC4)c(OC)cc13)CCC2` [Example 10, N-(2-ethoxyethyl)-7-methoxy-6-[3-(pyrrolidin-1-yl)propoxy]-1H,2H,3H-cyclopenta[b]quinolin-9-amine], the half-maximal inhibitory concentration (IC50) was 6.31 nM. The result for `CCOCCCNc1c2c(nc3cc(OCCCN4CCCC4)c(OC)cc13)CCC2` [Example 11, N-(3-ethoxypropyl)-7-methoxy-6-[3-(pyrrolidin-1-yl)propoxy]-1H,2H,3H-cyclopenta[b]quinolin-9-amine] reads 17.4 nM; that for `CCCOCCCNc1c2c(nc3cc(OCCCN4CCCC4)c(OC)cc13)CCC2` [Example 12, 7-methoxy-N-(3-propoxypropyl)-6-[3-(pyrrolidin-1-yl)propoxy]-1H,2H,3H-cyclopenta[b]quinolin-9-amine], 8.32 nM; that for `COc1cc2c(NCCOC(C)C)c3c(nc2cc1OCCCN1CCCC1)CCC3` [Example 13, 7-methoxy-N-[2-(propan-2-yloxy)ethyl]-6-[3-(pyrrolidin-1-yl)propoxy]-1H,2H,3H-cyclopenta[b]quinolin-9-amine], 31.6 nM. In turn, `COc1cc2c(NC[C@@H](C)OC)c3c(nc2cc1OCCCN1CCCC1)CCC3` [Example 14, 7-methoxy-N-[(2R)-2-methoxypropyl]-6-[3-(pyrrolidin-1-yl)propoxy]-1H,2H,3H-cyclopenta[b]quinolin-9-amine] gave a 50% inhibitory concentration (IC50) of 26.3 nM. The value for `COc1cc2c(NC[C@H](C)OC)c3c(nc2cc1OCCCN1CCCC1)CCC3` [Example 15, 7-methoxy-N-[(2S)-2-methoxypropyl]-6-[3-(pyrrolidin-1-yl)propoxy]-1H,2H,3H-cyclopenta[b]quinolin-9-amine] was 22.4 nM; that for `CCCOCCNc1c2c(nc3cc(OCCCN4CCCC4)c(OC)cc13)CCC2` [Example 16, 7-methoxy-N-(2-propoxyethyl)-6-[3-(pyrrolidin-1-yl)propoxy]-1H,2H,3H-cyclopenta[b]quinolin-9-amine] was 37.2 nM; that for `COc1cc2c(NCCCOC(C)C)c3c(nc2cc1OCCCN1CCCC1)CCC3` [Example 17, 7-methoxy-N-[3-(propan-2-yloxy)propyl]-6-[3-(pyrrolidin-1-yl)propoxy]-1H,2H,3H-cyclopenta[b]quinolin-9-amine] was 19.5 nM. The result for `COc1cc2c(NC[C@H]3CCCO3)c3c(nc2cc1OCCCN1CCCC1)CCC3` [Example 18, 7-methoxy-N-{[(2R)-oxolan-2-yl]methyl}-6-[3-(pyrrolidin-1-yl)propoxy]-1H,2H,3H-cyclopenta[b]quinolin-9-amine] reads 21.9 nM; that for `CNc1c2c(nc3cc(OCCCN4CCCC4)c(OC)cc13)CCCCC2` [Example 19, 2-methoxy-N-methyl-3-[3-(pyrrolidin-1-yl)propoxy]-6H,7H,8H,9H,10H-cyclohepta[b]quinolin-11-amine], 7.94 nM; that for `CNc1c2c(nc3cc(OCCCN4CCCC4)c(OC)cc13)CCC2(C)C` [Example 20, 7-methoxy-N,1,1-trimethyl-6-[3-(pyrrolidin-1-yl)propoxy]-1H,2H,3H-cyclopenta[b]quinolin-9-amine], 72.4 nM. The result for `CCNc1c2c(nc3cc(OCCCN4CCCC4)c(OC)cc13)CCC2(C)C` [Example 21, N-ethyl-7-methoxy-1,1-dimethyl-6-[3-(pyrrolidin-1-yl)propoxy]-1H,2H,3H-cyclopenta[b]quinolin-9-amine] reads 83.2 nM.

In turn, `COc1cc2c(NC(C)C)c3c(nc2cc1OCCCN1CCCC1)CCC3(C)C` [Example 22, 7-methoxy-1,1-dimethyl-N-(propan-2-yl)-6-[3-(pyrrolidin-1-yl)propoxy]-1H,2H,3H-cyclopenta[b]quinolin-9-amine] had an IC50 of 174 nM. On to `COCCNc1c2c(nc3cc(OCCCN4CCCC4)c(OC)cc13)CCC2(C)C` [Example 23, 7-methoxy-N-(2-methoxyethyl)-1,1-dimethyl-6-[3-(pyrrolidin-1-yl)propoxy]-1H,2H,3H-cyclopenta[b]quinolin-9-amine], for which the half-inhibitory concentration (IC50) is 468 nM. For `CNc1c2c(nc3cc(OCCCN4CCCC4)c(OC)cc13)CC(C)(C)C2` [Example 24, 7-methoxy-N,2,2-trimethyl-6-[3-(pyrrolidin-1-yl)propoxy]-1H,2H,3H-cyclopenta[b]quinolin-9-amine], 24 nM corresponded to half-maximal inhibition (IC50). The result for `COc1cc2c(NC[C@@H]3CCCO3)c3c(nc2cc1OCCCN1CCCC1)CCC3` [Example 25, 7-methoxy-N-{[(2S)-oxolan-2-yl]methyl}-6-[3-(pyrrolidin-1-yl)propoxy]-1H,2H,3H-cyclopenta[b]quinolin-9-amine] reads 15.5 nM. The value for `COc1cc2c(NC[C@@H]3COCCO3)c3c(nc2cc1OCCCN1CCCC1)CCC3` [Example 26, N-{[(2R)-1,4-dioxan-2-yl]methyl}-7-methoxy-6-[3-(pyrrolidin-1-yl)propoxy]-1H,2H,3H-cyclopenta[b]quinolin-9-amine] was 11.2 nM; that for `COc1cc2c(NC[C@H]3COCCO3)c3c(nc2cc1OCCCN1CCCC1)CCC3` [Example 27, N-{[(2S)-1,4-dioxan-2-yl]methyl}-7-methoxy-6-[3-(pyrrolidin-1-yl)propoxy]-1H,2H,3H-cyclopenta[b]quinolin-9-amine] was 12.6 nM; that for `COc1cc2c(NC[C@H]3CCOC3)c3c(nc2cc1OCCCN1CCCC1)CCC3` [Example 28, 7-methoxy-N-{[(3R)-oxolan-3-yl]methyl}-6-[3-(pyrrolidin-1-yl)propoxy]-1H,2H,3H-cyclopenta[b]quinolin-9-amine] was 10 nM.

Broadly, the IC50 is the concentration that inhibits the measured activity by half. Read a high IC50 as a need for much substance.
